pIC50: −log10 of the molar value.
Tests used:
[1] = target: C-Raf kinase (SEQ. ID NO: 3) (Homo sapiens (Human), UniProt P04049, Y340D/Y341D); experiment: Biochemical Assay for C-Raf (1); conditions: Table J, assay version (1); read-out: CRAF (1) IC50
Outline: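 IC50 values come from a four-parameter fit of percent inhibition, using the reaction rate over 4–5 h of a 6 h continuous 340 nm read at 30 °C. The enzyme mix was C-Raf 0.43 nM, MEK substrate 30.1 nM and ATP 1 mM, in a PK/LDH NADH-coupled format in Tris pH 7.5 with 1% DMSO.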

A375 cells = experiment: A375 Cell Proliferation Assay (1); type: cell-based; conditions: Homo sapiens, A-375
Outline: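 Resazurin fluorescence (excitation 540 nm, emission 600 nm, after a further 5-6 h) gave IC50s from triplicate compound dilution series.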

[2] = target: B-Raf (V600E) (SEQ. ID NO: 4) kinase (Homo sapiens (Human), UniProt P15056, V600E); experiment: Biochemical Assay for B-Raf (V600E) (1); conditions: Table J, BRAF V600E, assay version (1); read-out: BRAF VE (1) IC50
Outline: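 Serially diluted compounds tested against 0.03 nM enzyme with 30.1 nM MEK substrate and 1 mM ATP (Tris pH 7.5, 15 mM MgCl2), ATP use coupled to NADH loss via PK/LDH. A340 monitored continuously 6 h, 30 °C; IC50 fitted (four-parameter) from the 3–4 h rate versus no-compound and known-inhibitor controls.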

[3] = target: B-Raf kinase (SEQ. ID NO: 2) (Homo sapiens (Human), UniProt P15056); experiment: Biochemical Assay for B-Raf (1); conditions: Table J, assay version (1); read-out: BRAF (1) IC50
Outline: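 IC50 derived by four-parameter sigmoidal fit of percent inhibition, normalised to uninhibited and reference-inhibitor controls, using reaction rates over 4–5 h. Coupled spectrophotometric readout (NADH loss at 340 nm, 6 h, 30° C.); 1 mM ATP, 30.1 nM MEK, 0.13 nM B-Raf, pH 7.5 Tris buffer, 1% DMSO.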

C-Raf kinase (SEQ. ID NO: 3), sequence (P04049 307-648 Y340D/Y341D): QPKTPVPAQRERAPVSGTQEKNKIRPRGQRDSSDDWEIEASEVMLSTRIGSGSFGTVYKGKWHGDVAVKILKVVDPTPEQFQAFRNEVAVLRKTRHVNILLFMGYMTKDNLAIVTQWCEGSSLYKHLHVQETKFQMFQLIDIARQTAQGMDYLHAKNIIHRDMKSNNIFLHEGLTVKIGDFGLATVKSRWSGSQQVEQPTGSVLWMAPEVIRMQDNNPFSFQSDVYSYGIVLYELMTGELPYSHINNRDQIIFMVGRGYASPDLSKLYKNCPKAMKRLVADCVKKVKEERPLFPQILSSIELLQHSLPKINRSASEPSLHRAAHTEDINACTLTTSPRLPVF
B-Raf (V600E) (SEQ. ID NO: 4) kinase, sequence (P15056 416-766 V600E): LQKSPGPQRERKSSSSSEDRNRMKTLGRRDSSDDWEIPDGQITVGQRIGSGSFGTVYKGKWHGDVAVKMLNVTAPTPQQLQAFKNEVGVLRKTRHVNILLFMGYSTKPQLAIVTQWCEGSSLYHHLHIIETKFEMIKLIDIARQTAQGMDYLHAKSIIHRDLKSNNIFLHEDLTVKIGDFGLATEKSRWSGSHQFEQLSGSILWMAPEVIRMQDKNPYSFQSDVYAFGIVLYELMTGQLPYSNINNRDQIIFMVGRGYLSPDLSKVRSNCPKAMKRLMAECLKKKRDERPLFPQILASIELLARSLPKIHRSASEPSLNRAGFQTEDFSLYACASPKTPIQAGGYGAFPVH
B-Raf kinase (SEQ. ID NO: 2), sequence (P15056 416-766): as the sequence (P15056 416-766 V600E) above, with E185V counted along it

Structure (SMILES)	pIC50 [1]	pIC50 (A375 cells)	pIC50 [2]	pIC50 [3]
Cc1ncc(NC(=O)c2ccnc(C3CC3)c2)cc1-c1cccc(-c2ccnc(NC(=O)C3CC3)c2)n1 [Example 270]	≥ 7.00	6.30 to 7.00	≥ 7.00	≥ 7.00
Cc1cc(F)c(NC(=O)c2ccnc(C(F)(F)F)c2)cc1-c1cncc(-c2ccnc(NC(=O)C3CC3)c2)n1 [Example 271]	≥ 7.00	6.00 to 6.30	≥ 7.00	≥ 7.00
Cc1cc(C(=O)Nc2cnc(C)c(-c3ccnc(-c4ccnc(NC(=O)C5CC5)c4)n3)c2)ccn1 [Example 273]	≥ 7.00	5.00 to 6.00	≥ 7.00	6.30 to 7.00
COC(C)(C)c1cc(C(=O)Nc2cnc(C)c(-c3cccc(-c4cc(NC(=O)C5CC5)ncn4)c3)c2)ccn1 [Example 274]	≥ 7.00	≥ 7.00	≥ 7.00	≥ 7.00
Cc1cc(F)c(NC(=O)c2ccnc(C(C)(C)F)c2)cc1-c1cncc(-c2ccnc(NC(=O)C3CC3)c2)n1 [Example 276]	≥ 7.00	≥ 7.00	≥ 7.00	≥ 7.00
Cc1ncc(NC(=O)c2ccnc(C3CC3)c2)cc1-c1ccnc(-c2ccnc(NC(=O)C3CC3)c2)n1 [Example 277]	≥ 7.00	6.00 to 6.30	≥ 7.00	≥ 7.00
Cc1ncc(NC(=O)c2cnnc(C3CC3)c2)cc1-c1ccnc(-c2ccnc(NC(=O)C3CC3)c2)n1 [Example 278]	≥ 7.00	5.00 to 6.00	≥ 7.00	≥ 7.00
Cc1ncc(NC(=O)c2cnn(C(C)(C)C)c2)cc1-c1cccc(-c2cc(NC(=O)C3CC3)ncn2)c1 [Example 279]	≥ 7.00	6.30 to 7.00	≥ 7.00	≥ 7.00

— patent US12319655B2, “RAF kinase inhibitors and methods of use thereof” (Deciphera Pharmaceuticals, LLC, priority 2021, dated 2025)
